Results published in patent US20060115863A1, “Inositol phosphate detection assays” (AstraZeneca AB, priority 2002, published 2006).

Legend:
[1] = biological target: human neurokinin NK1 receptors (Homo sapiens, UniProt P25103); assay: NK1-mediated PI hydrolysis measured with Zr4+-SPA beads (IMAC-SPA); type: cell-based
Protocol: CHO cells stably expressing human neurokiuin NK1 receptors were maintained in 5% CO2 and at 37° C. in Ham's F12 medium supplemented with 10% fetal bovine serum (FBS) and 0.5 mg/ml G418. For experiments, the cells were plated onto 96-well plates in inositol-free DMEM medium containing 10% FBS and 5 μCi/ml [3 H]inositol (0.5 μCi/well). After 16-48 hr incubation, the medium was removed and the cells were incubated for 15 min with or without NK1 antagonist in phosphate-free lithium-containing Hanks solution (PFLH) (composition: 20 mM HEPES, pH 7.4, 1.25 mM MgCl2, 1.25 mM CaCl2, 5 mM KCl, 125 mM NaCl, 10 mM LiCl and 10 mM glucose). […] At the end of the incubation, the agonist solution was removed and 100 μl ice-cold 20 mM formic acid solution (pH3.0) containing 2 mM myo-inositol was added in each well to release inositol phosphates from the cells. After incubation at 4° C. for over 10 min, the samples were transferred to a white opaque plate, and 100 μl of metal ion loaded IMAC-SPA beads added to each well. Alternatively, IMAC-SPA beads could be added directly to the cell plate to eliminate the sample transfer step. The amount of [^3H] inositol phosphates generated in the cells was then determined by measurement of the radioactivity on the SPA beads on TopCount® NXT®. […]

PDGF receptor = assay: PDGF receptor-mediated PI hydrolysis in quiescent Swiss 3T3 cells measured with Zr4+-SPA beads; type: cell-based
Protocol: Swiss 3 T 3 cells were maintained in DMEM medium supplemented with 10% heat-inactivated calf serum. For PI hydrolysis assay, the cells were grown in 96-well plates in [^3H]inositol-containing medium for 16-48 hr, then deprived of serum for 24 hr. The cells were stimulated with PDGF-BB for 45-60 min and the inositol phosphate accumulated in the cells was measured by IMAC-SPA in the same way as described for NK1 receptors.
The PDGF receptor belongs to the superfamily of tyrosine kinase-linked growth factor receptors. Stimulation of the PDGF receptor leads to activation of PLC-y through Ras-related GTPase (Ji et al., 1999, Mol. Cell. Biol., 1999. 19:49614970; Wang et al., 1998, Mol. Cell. Biol., 18:590-597; Heldin et al., 1998, Biochim. Biophys. Acta, 1378:F79-113; Stice et al., 1999, Front. Biosci., 4:D72-86).

human neurokinin NK1 receptors, sequence (P25103 whole entry): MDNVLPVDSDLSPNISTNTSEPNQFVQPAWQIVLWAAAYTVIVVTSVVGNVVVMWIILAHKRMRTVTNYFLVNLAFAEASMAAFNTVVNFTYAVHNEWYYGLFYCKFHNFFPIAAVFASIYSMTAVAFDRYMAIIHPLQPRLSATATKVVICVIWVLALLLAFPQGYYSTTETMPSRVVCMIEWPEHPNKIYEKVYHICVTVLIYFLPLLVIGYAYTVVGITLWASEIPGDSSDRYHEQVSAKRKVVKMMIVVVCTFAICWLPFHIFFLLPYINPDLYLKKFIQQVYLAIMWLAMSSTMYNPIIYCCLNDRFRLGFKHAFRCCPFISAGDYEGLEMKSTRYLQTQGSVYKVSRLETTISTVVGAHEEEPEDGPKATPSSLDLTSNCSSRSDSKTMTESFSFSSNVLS

Question: FC(F)(F)c1cc(CO[C@H]2CCCN[C@H]2c2ccccc2)cc(C(F)(F)F)c1 [L-733060] was tested. Which “inhibition of PI hydrolysis induced by Substance P (mode)” value ([1]; NK1 CHO cells, shifted the concentration-response curve to the right) did it give?
Answer: inhibited competitively

Question: For “PDGF-BB: Human recombinant platelet-derived growth factor (PDGF-BB) from Calbiochem”, which “EC50 of stimulation of PI hydrolysis” value (PDGF receptor) is on record?
Answer: 3.0 ng/mL

Question: And the “maximal increase in inositol phosphate production” value (PDGF receptor)?
Answer: 5 fold

Question: Substance P was tested. Which “increase in signal ([3H]inositol phosphate) over the control” value ([1]; 0.1 μM, CHO cells expressing NK1 receptor, Zr4+-loaded SPA beads, saline control) did it give?
Answer: 12 fold
